# Reference: ChEMBL document CHEMBL1136499, “Tripeptidyl-peptidase II (TPP II) inhibitory activity of (S)-2,3-dihydro-2-(1H-imidazol-2-yl)-1H-indoles, a systematic SAR evaluation. Part 2” (Bioorg Med Chem Lett, 2003)
# Target: Tripeptidyl-peptidase 2 (Rattus norvegicus, UniProt Q64560)
# Assay: Inhibition of Tripeptidyl-peptidase II purified from a rat liver post-lysosomal fraction.
# Tripeptidyl-peptidase 2, sequence (Q64560 whole entry): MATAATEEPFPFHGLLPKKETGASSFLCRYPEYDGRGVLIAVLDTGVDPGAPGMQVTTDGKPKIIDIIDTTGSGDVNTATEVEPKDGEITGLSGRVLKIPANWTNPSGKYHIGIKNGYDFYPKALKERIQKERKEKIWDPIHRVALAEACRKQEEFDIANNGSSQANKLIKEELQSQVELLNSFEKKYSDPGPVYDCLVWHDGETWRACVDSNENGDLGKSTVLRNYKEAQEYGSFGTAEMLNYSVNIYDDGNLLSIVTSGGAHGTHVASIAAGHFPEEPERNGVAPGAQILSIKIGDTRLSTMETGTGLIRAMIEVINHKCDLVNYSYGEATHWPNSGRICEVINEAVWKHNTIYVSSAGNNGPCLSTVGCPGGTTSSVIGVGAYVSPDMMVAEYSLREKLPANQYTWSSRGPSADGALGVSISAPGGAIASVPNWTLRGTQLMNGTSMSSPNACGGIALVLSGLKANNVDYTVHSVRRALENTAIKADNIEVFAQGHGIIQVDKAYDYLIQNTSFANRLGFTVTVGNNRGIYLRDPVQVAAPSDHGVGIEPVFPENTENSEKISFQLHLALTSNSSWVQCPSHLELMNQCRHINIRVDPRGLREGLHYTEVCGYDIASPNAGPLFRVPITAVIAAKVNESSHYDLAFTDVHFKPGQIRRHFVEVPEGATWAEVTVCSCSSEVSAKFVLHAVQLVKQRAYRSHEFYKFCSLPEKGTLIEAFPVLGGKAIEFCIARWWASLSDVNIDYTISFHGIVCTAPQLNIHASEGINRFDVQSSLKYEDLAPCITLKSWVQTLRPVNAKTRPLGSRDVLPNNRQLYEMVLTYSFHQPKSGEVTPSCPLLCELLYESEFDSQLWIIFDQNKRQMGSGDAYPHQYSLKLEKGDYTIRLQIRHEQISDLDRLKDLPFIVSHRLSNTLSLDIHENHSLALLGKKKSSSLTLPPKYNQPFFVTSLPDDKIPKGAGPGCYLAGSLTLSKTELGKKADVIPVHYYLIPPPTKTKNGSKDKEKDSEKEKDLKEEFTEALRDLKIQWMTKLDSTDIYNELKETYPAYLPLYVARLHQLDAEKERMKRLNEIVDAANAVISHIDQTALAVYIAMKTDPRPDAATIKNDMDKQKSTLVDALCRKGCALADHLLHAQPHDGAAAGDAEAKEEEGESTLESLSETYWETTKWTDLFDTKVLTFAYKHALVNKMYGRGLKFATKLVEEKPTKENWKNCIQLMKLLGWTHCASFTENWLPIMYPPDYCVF
row,IC50,Compound
1,> 10 µM,CCCc1cnc([C@@H]2Cc3ccccc3N2C(=O)c2cccc([N+](=O)[O-])c2)[nH]1
2,2.3 µM,CCCc1cnc([C@@H]2Cc3ccccc3N2C(=O)[C@@H](N)Cc2ccccc2)[nH]1
3,0.011 µM,CCCc1c[nH]c([C@@H]2Cc3cc(Cl)ccc3N2C(=O)CN)n1
4,0.4 µM,CCCc1c[nH]c([C@@H]2CCc3ccccc3N2C(=O)[C@H](C)N)n1 (stereo in doubt; form 2)
5,0.004 µM,CCCc1c[nH]c([C@@H]2Cc3ccccc3N2C(=O)[C@@H](N)CCC)n1
6,> 10 µM,CCCc1cnc([C@@H]2Cc3ccccc3N2C(=O)CCN)[nH]1
7,0.016 µM,CCCc1c[nH]c([C@@H]2Cc3cc(OC)ccc3N2C(=O)[C@H](C)N)n1
8,0.07 µM,CCCc1c[nH]c([C@@H]2Cc3cc(OC)ccc3N2C(=O)CN)n1
9,> 10 µM,CCCc1cnc([C@@H]2Cc3ccccc3N2C(=O)c2ccccc2[N+](=O)[O-])[nH]1
10,> 10 µM,CCCc1cnc([C@@H]2Cc3ccccc3N2C(=O)c2ccccc2N)[nH]1
11,0.005 µM,CCCc1cnc([C@@H]2Cc3cc(Cl)ccc3N2C(=O)[C@H](C)N)[nH]1
12,0.023 µM,CCc1c[nH]c([C@@H]2Cc3ccccc3N2C(=O)[C@H](C)N)n1
13,0.004 µM,CCCc1c[nH]c([C@@H]2Cc3ccccc3N2C(=O)[C@H](N)CC)n1
14,0.8 µM,CCCc1c[nH]c([C@@H]2CCc3ccccc3N2C(=O)[C@H](C)N)n1 (stereo in doubt; form 1)
15,0.02 µM,CCCc1c[nH]c([C@@H]2Cc3ccccc3N2C(=O)[C@@H](N)C(C)C)n1
16,0.05 µM,CCCCc1cnc([C@@H]2Cc3ccccc3N2C(=O)CN)[nH]1
17,1.4 µM,CCCc1cnc([C@@H]2Cc3ccccc3N2C(=O)[C@H]2CCCN2)[nH]1
18,0.046 µM,CCCc1cnc([C@@H]2Cc3cc(F)ccc3N2C(=O)CN)[nH]1
19,> 10 µM,CCc1cnc([C@@H]2Cc3ccccc3N2C[C@H](C)N)[nH]1
20,0.055 µM,CCCc1[nH]c([C@@H]2Cc3ccccc3N2C(=O)CN)nc1C

# Further lines, the compound ahead of its results:
row,Compound,IC50
1,CCCc1c[nH]c([C@@H]2Cc3ccccc3N2C(=O)CN)n1,0.036 µM
2,CCc1cn(C)c([C@@H]2Cc3ccccc3N2C(=O)CN)n1,2.1 µM
3,CCCc1c[nH]c([C@@H]2Cc3ccccc3N2C(=O)c2cccc(N)c2)n1,> 10 µM
4,CCc1c[nH]c([C@@H]2Cc3ccccc3N2C(=O)CN)n1,0.194 µM
5,CCc1cnc([C@@H]2Cc3ccccc3N2C(=O)CN)s1,7.7 µM
6,CCCc1[nH]c([C@@H]2Cc3ccccc3N2C(=O)CN)nc1C(=O)OCC,0.21 µM
7,CCCc1[nH]c([C@@H]2Cc3ccccc3N2C(=O)CN)nc1C(=O)NCC(=O)OC,0.135 µM
8,CCc1cnc([C@@H]2Cc3ccccc3N2C(=O)CN)n1C,> 10 µM
9,CCCc1nnc([C@@H]2Cc3ccccc3N2C(=O)CN)[nH]1,> 10 µM
10,CCCc1nc([C@@H]2Cc3ccccc3N2C(=O)CN)[nH]c1C(N)=O,0.2 µM
11,C[C@H](N)C(=O)N1c2ccccc2C[C@H]1c1nc2ccccc2[nH]1,1.4 µM
12,CCCc1c[nH]c([C@@H]2Cc3ccccc3N2C(=O)c2c[nH]cn2)n1,> 10 µM
13,NCC(=O)N1c2ccccc2C[C@H]1c1nc(-c2ccccc2)c[nH]1,> 10 µM
14,CCC(N)C(=O)N1c2ccccc2C[C@H]1c1nc2ccccc2[nH]1 (stereo partly specified),0.45 µM
15,CCCc1nnc([C@@H]2Cc3ccccc3N2C(=O)CN)o1,2.2 µM
16,CCCc1c[nH]c([C@@H]2Cc3ccccc3N2C(=O)[C@H](C)NC)n1,> 10 µM
